Reference: PubChem BioAssay AID2060496 (Molecular Pharmacology Branch, DTP, NCI, 2025)
Each block holds one compound with its values, some of them ahead of it.

System: 276233-004-R-J1-PDC complex spheroid viability
Assay: Anticancer human tumor 276233-004-R-J1-PDC patient-derived colon adenocarcinoma cell line growth inhibition [GQUAD]
Settings: for IC50: curve of first compound; for viability, T/C: stronger effect = lower value
In short: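 Multi-cell-type spheroids of tumor cells with HUVEC and mesenchymal stem cells, treated with drug combinations. Concentrations descend in half-log steps from near clinical Cmax, or from 10 microM where Cmax is unknown; viability read-out.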

[1] = second compound 0.0316 µM, first compound 0.0316 µM
[2] = second compound 0.0316 µM, first compound 0.1 µM
[3] = second compound 0.0316 µM, first compound 0.316 µM
[4] = second compound 0.0316 µM, first compound 1 µM
[5] = second compound 0.0316 µM, first compound 3.16 µM
[6] = second compound 0.0316 µM, first compound 10 µM
[7] = second compound 0.1 µM, first compound 0.0316 µM
[8] = second compound 0.1 µM, first compound 0.1 µM
[9] = second compound 0.1 µM, first compound 0.316 µM
[10] = second compound 0.1 µM, first compound 1 µM
[11] = second compound 0.1 µM, first compound 3.16 µM
[12] = second compound 0.1 µM, first compound 10 µM
[13] = second compound 0.316 µM, first compound 0.0316 µM
[14] = second compound 0.316 µM, first compound 0.1 µM
[15] = second compound 0.316 µM, first compound 0.316 µM
[16] = second compound 0.316 µM, first compound 1 µM
[17] = second compound 0.316 µM, first compound 3.16 µM
[18] = second compound 0.316 µM, first compound 10 µM
[19] = second compound 1 µM, first compound 0.0316 µM
[20] = second compound 1 µM, first compound 0.1 µM
[21] = second compound 1 µM, first compound 0.316 µM
[22] = second compound 1 µM, first compound 1 µM
[23] = second compound 1 µM, first compound 3.16 µM
[24] = second compound 1 µM, first compound 10 µM
[25] = second compound 3.16 µM, first compound 0.0316 µM
[26] = second compound 3.16 µM, first compound 0.1 µM
[27] = second compound 3.16 µM, first compound 0.316 µM
[28] = second compound 3.16 µM, first compound 1 µM
[29] = second compound 3.16 µM, first compound 3.16 µM
[30] = second compound 3.16 µM, first compound 10 µM
[31] = second compound 10 µM, first compound 0.0316 µM
[32] = second compound 10 µM, first compound 0.1 µM
[33] = second compound 10 µM, first compound 0.316 µM
[34] = second compound 10 µM, first compound 1 µM
[35] = second compound 10 µM, first compound 3.16 µM
[36] = second compound 10 µM, first compound 10 µM
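Further: spheroids exposed to drugs for seven days.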
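Wherever viability, T/C is given: 100% = DMSO vehicle control viability.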

IC50 (second compound 0.0316 µM): > 10 µM
IC50 (second compound 0.1 µM): > 10 µM
IC50 (second compound 0.316 µM): > 10 µM
IC50 (second compound 1 µM): > 10 µM
IC50 (second compound 3.16 µM): > 10 µM
IC50 (second compound 10 µM): > 10 µM
SMILES: C=CC(=O)N1CCN(c2nc(=O)n(-c3c(C)ccnc3C(C)C)c3nc(-c4c(O)cccc4F)c(F)cc23)C(C)C1 (stereo unspecified) + Cc1cnc(CNC(=O)c2c(=O)c3ccc(N4CCCN(C)CC4)nc3n3c2sc2ccccc23)cn1
viability, T/C [1]: 82.3%
viability, T/C [2]: 75.1%
viability, T/C [3]: 81.3%
viability, T/C [4]: 83.5%
viability, T/C [5]: 103%
viability, T/C [6]: 95.8%
viability, T/C [7]: 93.6%
viability, T/C [8]: 84.6%
viability, T/C [9]: 94.9%
viability, T/C [10]: 92.8%
viability, T/C [11]: 98.4%
viability, T/C [12]: 83.8%
viability, T/C [13]: 80.6%
viability, T/C [14]: 86.3%
viability, T/C [15]: 82.6%
viability, T/C [16]: 83.6%
viability, T/C [17]: 83.3%
viability, T/C [18]: 86.7%
viability, T/C [19]: 76.3%
viability, T/C [20]: 71%
viability, T/C [21]: 88.9%
viability, T/C [22]: 108%
viability, T/C [23]: 79.5%
viability, T/C [24]: 89.5%
viability, T/C [25]: 75.1%
viability, T/C [26]: 74.9%
viability, T/C [27]: 77.1%
viability, T/C [28]: 73.4%
viability, T/C [29]: 77.7%
viability, T/C [30]: 83.5%
viability, T/C [31]: 62.7%
viability, T/C [32]: 68.9%
viability, T/C [33]: 75.6%
viability, T/C [34]: 61.6%
viability, T/C [35]: 80.3%
viability, T/C [36]: 68.8%

IC50 (second compound 0.0316 µM): > 10 µM
IC50 (second compound 0.1 µM): > 10 µM
IC50 (second compound 0.316 µM): > 10 µM
IC50 (second compound 1 µM): > 10 µM
IC50 (second compound 3.16 µM): > 10 µM
IC50 (second compound 10 µM): > 10 µM
SMILES: CC(C)n1c(=O)n(C)c2cnc3cc(F)c(-c4ccc(OCCCN5CCCCC5)nc4)cc3c21 + Cc1cnc(CNC(=O)c2c(=O)c3ccc(N4CCCN(C)CC4)nc3n3c2sc2ccccc23)cn1
viability, T/C [1]: 81.3%
viability, T/C [2]: 71.9%
viability, T/C [3]: 82.5%
viability, T/C [4]: 89.4%
viability, T/C [5]: 79.3%
viability, T/C [6]: 79.2%
viability, T/C [7]: 79%
viability, T/C [8]: 83.4%
viability, T/C [9]: 76.8%
viability, T/C [10]: 78.9%
viability, T/C [11]: 96.5%
viability, T/C [12]: 86.4%
viability, T/C [13]: 85.9%
viability, T/C [14]: 96.7%
viability, T/C [15]: 82.1%
viability, T/C [16]: 78.2%
viability, T/C [17]: 85.2%
viability, T/C [18]: 81.9%
viability, T/C [19]: 69.9%
viability, T/C [20]: 64.9%
viability, T/C [21]: 89.3%
viability, T/C [22]: 81.6%
viability, T/C [23]: 85%
viability, T/C [24]: 69.7%
viability, T/C [25]: 80.4%
viability, T/C [26]: 78%
viability, T/C [27]: 79.3%
viability, T/C [28]: 71.9%
viability, T/C [29]: 75%
viability, T/C [30]: 76.7%
viability, T/C [31]: 74.3%
viability, T/C [32]: 66.7%
viability, T/C [33]: 66.8%
viability, T/C [34]: 69.2%
viability, T/C [35]: 80.8%
viability, T/C [36]: 66.3%

IC50 (second compound 0.0316 µM): 3.1 µM
IC50 (second compound 0.1 µM): 3.56 µM
IC50 (second compound 0.316 µM): 1.47 µM
IC50 (second compound 1 µM): 1.02 µM
IC50 (second compound 3.16 µM): 0.642 µM
IC50 (second compound 10 µM): 0.271 µM
SMILES: CC1COCCN1c1cc(C2(O)CC3CCC(C2)O3)c2cnn(-c3ccn[nH]3)c2n1 (stereo unspecified) + Cc1cnc(CNC(=O)c2c(=O)c3ccc(N4CCCN(C)CC4)nc3n3c2sc2ccccc23)cn1
viability, T/C [1]: 81%
viability, T/C [2]: 61.9%
viability, T/C [3]: 79.2%
viability, T/C [4]: 50.7%
viability, T/C [5]: 52.1%
viability, T/C [6]: 40.3%
viability, T/C [7]: 79.7%
viability, T/C [8]: 80.7%
viability, T/C [9]: 60.6%
viability, T/C [10]: 63.5%
viability, T/C [11]: 56.3%
viability, T/C [12]: 35.8%
viability, T/C [13]: 71.1%
viability, T/C [14]: 85.3%
viability, T/C [15]: 62.6%
viability, T/C [16]: 50.6%
viability, T/C [17]: 48.7%
viability, T/C [18]: 32.9%
viability, T/C [19]: 68.8%
viability, T/C [20]: 75%
viability, T/C [21]: 50.4%
viability, T/C [22]: 50%
viability, T/C [23]: 44.6%
viability, T/C [24]: 24.9%
viability, T/C [25]: 55.7%
viability, T/C [26]: 59.7%
viability, T/C [27]: 56.4%
viability, T/C [28]: 44.8%
viability, T/C [29]: 35.9%
viability, T/C [30]: 24.6%
viability, T/C [31]: 63.2%
viability, T/C [32]: 60.1%
viability, T/C [33]: 46.9%
viability, T/C [34]: 41.7%
viability, T/C [35]: 35.6%
viability, T/C [36]: 20%
